Data taken from ChEMBL document CHEMBL5614413, “Design, synthesis and biological evaluation of amphiphilic benzopyran derivatives as potent antibacterial agents against multidrug-resistant bacteria” (Eur J Med Chem, 2024).
Converted amounts (≈) assume the structure as drawn. The source made the active and inactive calls. No cut-off for these calls is given here.

Tests used:
[1] = test system: Cell membrane; test: Disruption of cell membrane integrity in methicillin-resistant Staphylococcus aureus ATCC 43300 assessed as appearance of red fluorescence by DAPI/PI staning based microscopic analysis; assay type: cell membranes
[2] = test system: Staphylococcus aureus; test: Antibacterial activity against penicillin-resistant Staphylococcus aureus ATCC 31007; assay type: functional
[3] = test system: Staphylococcus aureus; test: Antibacterial activity against methicillin-resistant Staphylococcus aureus ATCC 43300 at 1/2 times of MIC measured after 20 passage; assay type: functional, organism-based
[4] = test system: Staphylococcus aureus; test: Antibacterial activity against methicillin-resistant Staphylococcus aureus ATCC 43300; assay type: functional
[5] = test system: Cell membrane; test: Induction of cytoplasmic membrane depolarization in methicillin-resistant Staphylococcus aureus ATCC 43300 assessed as increase in fluorescence intensity by DiSC3(5) dye-based fluorescence assay; assay type: cell membranes
[6] = test system: Staphylococcus aureus; test: Bactericidal activity against methicillin-resistant Staphylococcus aureus ATCC 43300 by Mueller Hinton broth based assay; assay type: functional; conditions: time <= 6 hrs
[7] = test system: Staphylococcus epidermidis; test: Antibacterial activity erythromycin-susceptible Staphylococcus epidermidis ATCC 12228; assay type: functional
[8] = test system: Acinetobacter baumannii; test: Antibacterial activity against Acinetobacter baumannii ATCC 19606; assay type: functional
[9] = test system: Staphylococcus aureus; test: Inhibition of biofilm formation in methicillin-resistant Staphylococcus aureus ATCC 43300 at 16 microg/ml relative to control; assay type: functional
[10] = test system: Pseudomonas aeruginosa; test: Antibacterial activity against penicillin-susceptible Pseudomonas aeruginosa ATCC 27853; assay type: functional
[11] = test system: Staphylococcus aureus; test: Inhibition of biofilm formation in methicillin-resistant Staphylococcus aureus ATCC 43300 at 2 microg/ml relative to control; assay type: functional
[12] = test system: Cell membrane; test: Disruption of cell membrane in methicillin-resistant Staphylococcus aureus ATCC 43300 assessed as appearance of broken surface by scanning electron microscopic analysis; assay type: cell membranes
[13] = test system: Staphylococcus aureus; test: Bactericidal activity against methicillin-resistant Staphylococcus aureus ATCC 43300 in presence of 50% human plasma by Mueller Hinton broth based assay; assay type: functional
[14] = test system: Enterococcus faecalis; test: Antibacterial activity against vancomycin-susceptible Enterococcus faecalis ATCC 29212; assay type: functional
[15] = test system: Staphylococcus aureus; test: Selectivity ratio of MBC for bactericidal activity against methicillin-resistant Staphylococcus aureus ATCC 43300 in presence of 50% human serum to MBC for bactericidal activity against methicillin-resistant Staphylococcus aureus ATCC 43300; assay type: functional
[16] = test system: Staphylococcus aureus; test: Bactericidal activity against methicillin-resistant Staphylococcus aureus ATCC 43300 in presence of 50% human serum by Mueller Hinton broth based assay; assay type: functional
[17] = test system: Staphylococcus aureus; test: Bacteriostatic activity against methicillin-resistant Staphylococcus aureus ATCC 43300 assessed as inhibition of bacterial growth at 2 times of MIC measured after 24 hrs by time-kill kinetic analysis; assay type: functional, organism-based
[18] = test system: Cell membrane; test: Disruption of cell membrane in methicilin-resistant Staphylococcus aureus ATCC 43300 assessed as appearance of collapsed cell membrane by scanning electron microscopic analysis; assay type: cell membranes
[19] = test system: Staphylococcus aureus; test: Inhibition of biofilm formation in methicillin-resistant Staphylococcus aureus ATCC 43300 at 8 microg/ml relative to control; assay type: functional
[20] = test system: Staphylococcus aureus; test: Disruption of preformed biofilm in methicillin-resistant Staphylococcus aureus ATCC 43300 assessed as eradication of biofilm at 64 microg/ml by crystal violet staining based analysis relative to control; assay type: functional; conditions: dose 64 µg/ml
[21] = test system: Staphylococcus aureus; test: Drug resistance, ratio of MIC for methicillin-resistant Staphylococcus aureus ATCC 43300 after 20 passages to MIC for methicillin-resistant Staphylococcus aureus ATCC 43300 during first exposure; assay type: functional
[22] = test system: Bacillus subtilis; test: Antibacterial activity against penicillin-susceptible Bacillus subtilis ATCC 9372; assay type: functional
[23] = test system: Staphylococcus aureus; test: Bactericidal activity against methicillin-resistant Staphylococcus aureus ATCC 43300 assessed as reduction in bacterial growth; assay type: functional, organism-based
[24] = test system: Staphylococcus aureus; test: Bactericidal activity against methicillin-resistant Staphylococcus aureus ATCC 43300 assessed as bacterial eradication at 16 times of MIC measured at 8 hrs by time kill kinetics analysis relative to control; assay type: functional
[25] = test system: Cell membrane; test: Induction of cytoplasmic membrane depolarization in methicillin-resistant Staphylococcus aureus ATCC 43300 assessed as increase in fluorescence intensity at 2 microg/ml by DiSC3(5) dye-based fluorescence assay; assay type: cell membranes; conditions: dose 2.0 µg/ml
[26] = test system: Cell membrane; test: Disruption of cell membrane integrity in methicillin-resistant Staphylococcus aureus ATCC 43300 assessed as appearance of blue fluorescence by DAPI/PI staining based microscopic analysis; assay type: cell membranes
[27] = test system: Klebsiella pneumoniae; test: Antibacterial activity against Klebsiella pneumoniae ATCC 10031; assay type: functional
[28] = test system: Escherichia coli; test: Antibacterial activity against penicillin-susceptible Escherichia coli ATCC 25922; assay type: functional
[29] = test system: Staphylococcus aureus; test: Antibacterial activity against erythromycin-susceptible Staphylococcus aureus ATCC 25923; assay type: functional
[30] = test system: Cell membrane; test: Induction of cell membrane disruption in methicillin-resistant Staphylococcus aureus ATCC 43300 assessed as increase in DNA leakage; assay type: cell membranes
[31] = test system: Staphylococcus aureus; test: Bactericidal activity against methicillin-resistant Staphylococcus aureus ATCC 43300 in presence of 50% human blood by Mueller Hinton broth based assay; assay type: functional; conditions: ATCC 43300, Blood, time <= 6 hrs
[32] = Selectivity index, ratio of HC50 for hemolytic activity in sheep RBC to MIC for antibacterial activity against methicillin-resistant Staphylococcus aureus ATCC 43300; assay type: toxicity; conditions: sheep red blood cells (erythrocytes), read-out: Selectivity Index
[33] = test system: Staphylococcus aureus; test: Selectivity ratio of MBC for bactericidal activity against methicillin-resistant Staphylococcus aureus ATCC 43300 preincubated with 50% human plasma upto 6 hrs to MBC for bactericidal activity against methicillin-resistant Staphylococcus aureus ATCC 43300; assay type: functional
[34] = test system: Cell membrane; test: Disruption of cell membrane in methicilin-resistant Staphylococcus aureus ATCC 43300 assessed as appearance of wrinkled cell membrane by scanning electron microscopic analysis; assay type: cell membranes
[35] = test system: Cell membrane; test: Induction of cytoplasmic membrane permeabilization in methicillin-resistant Staphylococcus aureus ATCC 43300 assessed as increase fluorescence intensity at 16 microg/ml by PI staining based fluorescence analysis; assay type: cell membranes; conditions: dose 16.0 µg/ml
[36] = test system: Cell membrane; test: Induction of cell membrane disruption in methicillin-resistant Staphylococcus aureus ATCC 43300 assessed as increase in protein leakage; assay type: cell membranes
[37] = test system: Staphylococcus aureus; test: Bactericidal activity against methicillin-resistant Staphylococcus aureus ATCC 43300 assessed as log reduction in bacterial growth at 16 times of MIC measured after 4 hrs by time killing analysis; assay type: functional
[38] = test system: Staphylococcus aureus; test: Disruption of preformed biofilm in methicillin-resistant Staphylococcus aureus ATCC 43300 assessed as eradication of biofilm by crystal violet staining method; assay type: functional, organism-based; conditions: dose 2-64 µg/ml
[39] = test system: Staphylococcus aureus; test: Inhibition of biofilm formation in methicillin-resistant Staphylococcus aureus ATCC 43300; assay type: functional, organism-based; conditions: dose 2-32 µg/ml
[40] = test system: Staphylococcus aureus; test: Selectivity ratio of MBC for bactericidal activity against methicillin-resistant Staphylococcus aureus ATCC 43300 in presence of 50% human blood to MBC for bactericidal activity against methicillin-resistant Staphylococcus aureus ATCC 43300; assay type: functional
[41] = test system: Staphylococcus aureus; test: Disruption of preformed biofilm in methicillin-resistant Staphylococcus aureus ATCC 43300 assessed as eradication of biofilm at 8 microg/ml by crystal violet staining based analysis relative to control; assay type: functional; conditions: dose 8 µg/ml
[42] = test system: Staphylococcus aureus; test: Bacteriostatic activity against methicillin-resistant Staphylococcus aureus ATCC 43300 assessed as inhibition of bacterial growth at 1 times of MIC measured after 24 hrs by time-kill kinetic analysis; assay type: functional, organism-based
[43] = test system: Staphylococcus aureus; test: Induction of ROS production in methicillin-resistant Staphylococcus aureus ATCC 43300 assessed as fold increase in ROS level at 32 microg/ml by DCFH-DA staining based analysis; conditions: dose 32 µg/ml
[44] = Hemolytic activity in sheep RBC; assay type: toxicity, cell-based, Ovis aries, Erythrocyte; conditions: sheep red blood cells (erythrocytes)
[45] = test system: Staphylococcus aureus; test: Drug resistance, ratio of MIC for methicillin-resistant Staphylococcus aureus ATCC 43300 after 19 days exposure to MIC for methicillin-resistant Staphylococcus aureus ATCC 43300 during first exposure; assay type: functional; conditions: time 19 day

CCN(CC)CCCNCCCOc1ccc(/C=C/C(=O)c2ccc3c(c2OC)C=CC(C)(CCC=C(C)C)O3)cc1 (stereo not given)
Activity [1]: Active
MIC [2]: 1 µg/mL (≈ 1.74 µM)
Activity [3]: Active
MIC [4]: 2 µg/mL (≈ 3.48 µM)
Activity [5]: Dose-Dependent Effect
MBC [6]: 32 µg/mL (≈ 55.7 µM)
MIC [7]: 1 µg/mL (≈ 1.74 µM)
MIC [8]: 8 µg/mL (≈ 13.9 µM)
inhibition at 16 µg/mL [9]: > 92%
MIC [10]: 64 µg/mL (≈ 111 µM)
inhibition at 2 µg/mL [11]: 21.2%
Activity [12]: Active
MBC [13]: 32 µg/mL
MIC [14]: 2 µg/mL (≈ 3.48 µM)
selectivity ratio [15]: 2
MBC [16]: 32 µg/mL
Activity [17]: Active
Activity [18]: Active
inhibition at 8 µg/mL [19]: 91.6%
Activity [20]: >40%
Ratio [21]: 2
MIC [22]: 1 µg/mL (≈ 1.74 µM)
Activity [23]: Dose-Dependent Effect
Activity [24]: 100%
Activity [25]: inactive
Activity [26]: Active
MIC [27]: 4 µg/mL (≈ 6.96 µM)
MIC [28]: 2 µg/mL (≈ 3.48 µM)
MIC [29]: 2 µg/mL (≈ 3.48 µM)
Activity [30]: Active
MBC [31]: 64 µg/mL
selectivity ratio [32]: 135
selectivity ratio [33]: <2
Activity [34]: Active
Activity [35]: Active
Activity [36]: Active
log(activity) [37]: 6
Activity [38]: Dose-Dependent Effect
inhibition [39]: Dose-Dependent Effect
selectivity ratio [40]: 2
Activity [41]: 19.12%
Activity [42]: Active
fold change (FC) [43]: 14
HC50 [44]: 270 µg/mL

CCn1cc(C(=O)O)c(=O)c2cc(F)c(N3CCNCC3)cc21 [NORFLOXACIN]
Ratio [45]: 512
